The record followed here is ChEMBL document CHEMBL1128110, “Enantiodifferentiation of dihydropyridine PAF antagonists” (Bioorg Med Chem Lett, 1995).

Data set [1] can be described thus: Plasma half life was evaluated in dog. The format is ADME, organism-based, Canis lupus familiaris.
A short description of data set [2]: Oral bioavailability in dog. Conditions: in vivo. The data set is classed as ADME, organism-based, Canis lupus familiaris.
For data set [3], the system named is Mus sp. The data set is described as follows: In vivo for PAF antagonist activity in mice after oral administration. The data set is classed as functional.
A short description of data set [4]: Inhibition of [3H]nitrendipine binding to dihydropyridine sites of bovine frontal cortex membranes. The data set is classed as tissue-based, Bos taurus.
For data set [5], the species on record is Rattus norvegicus. The data set is described as follows: Calcium channel blocking activity in K+ stimulated rat aorta assay. The format is functional.
Data set [6] is described as follows: Plasma half life was evaluated in Dog. The data set is classed as ADME, organism-based, Canis lupus familiaris.
The nature of data set [7]: Half life was evaluated in dog. The following applies: in vivo. The format is ADME, organism-based, Canis lupus familiaris.
Data set [8] can be described thus: Plasma half life was evaluated. The data set is classed as ADME, organism-based, Canis lupus familiaris. The following applies: dog.

As to `CCOC(=O)C1=C(c2ccc(-n3c(C)nc4cnccc43)cc2)NC(C)=C(C(=O)Nc2ccccn2)C1c1ccccc1Cl` (stereo in doubt; 18), the half-life in data set [1] was 1.2 h. The same molecule had a bioavailability in data set [2] of 100%. Further, the ED50 in data set [3] is 0.26 mg/kg.

In the case of `CCOC(=O)C1=C(c2ccc(-n3c(C)nc4cnccc43)cc2)NC(C)=C(C(=O)Nc2ccccn2)C1c1ccccc1Cl` (single isomer, unassigned; (+)), in data set [3], the ED50 came out at 0.15 mg/kg.

With `CCO/C(O)=C1\C(COCCn2c(C)nc3cccnc32)=NC(C)=C(C(=O)Nc2ccccn2)C1c1ccccc1Cl` (stereo unspecified), the median effective dose (ED50) in data set [3] (Mus sp., po, read-out: ED50) was 25 mg/kg.

As for `CCO/C(O)=C1\C(COCCn2c(C)nc3ccncc32)=NC(C)=C(C(=O)Nc2ccccn2)C1c1ccccc1Cl` (stereo unspecified), the ED50 in data set [3] (Mus sp., po, read-out: ED50) amounted to 29 mg/kg.

Consider `CCO/C(O)=C1\C(COCCn2c(C)nc(C)c2C)=NC(C)=C(C(=O)OC)[C@H]1c1ccccc1Cl`, for which the half-maximal inhibitory concentration (IC50) in data set [4] is greater than 10000 nM; in data set [5], greater than 1000 nM.

`CCOC(=O)C1=C(c2ccc(-n3c(C)nc4cnccc43)cc2)NC(C)=C(C(=O)Nc2ccccn2)C1c1ccccc1Cl` (single isomer, unassigned; (-)) gave a median effective dose (ED50) in data set [3] of 3.8 mg/kg.

In the case of `CCO/C(O)=C1\C(COCCn2c(C)nc(C)c2C)=NC(C)=C(C(=O)OC)C1c1ccccc1Cl` (stereo unspecified), the results for the IC50 in data set [4] and in data set [5] were 96 nM and 14 nM, respectively.

For `CCO/C(O)=C1\C(COCCn2c(C)nc(C)c2C)=NC(C)=C(C(=O)Nc2ccccc2)C1c1ccccc1Cl` (stereo unspecified), in data set [3] (Mus sp., po, read-out: ED50), the median effective dose (ED50) stood at 18 mg/kg.

For `CCO/C(O)=C1\C(COCCn2c(C)nc3ncccc32)=NC(C)=C(C(=O)Nc2ccccn2)C1c1ccccc1Cl` (stereo unspecified), the ED50 in data set [3] (Mus sp., po, read-out: ED50) came out at 31 mg/kg.

The molecule `CCO/C(O)=C1\C(COCCn2c(C)nc3ccccc32)=NC(C)=C(C(=O)NC(C)(C)C)C1c1ccccc1Cl` (stereo unspecified) had a half-life in data set [6] of 1.2 h. The same molecule showed a bioavailability in data set [2] of 30%. Further, in data set [3] (Mus sp., po, read-out: ED50), the 50% effective dose (ED50) stood at 34 mg/kg.

As to `CCO/C(O)=C1\C(COCCn2c(C)nc(C)c2C)=NC(C)=C(C(=O)OC)[C@@H]1c1ccccc1Cl`, the IC50 stood at 41 nM in data set [4] and 12 nM in data set [5].

As to `CCO/C(O)=C1\C(COCCn2c(C)nc3ccccc32)=NC(C)=C(C(=O)Nc2ccccn2)C1c1ccccc1Cl` (stereo unspecified), the ED50 in data set [3] (Mus sp., po, read-out: ED50) is 49 mg/kg.

The molecule `CCO/C(O)=C1\C(COCCn2c(C)nc(C)c2C)=NC(C)=C(C(=O)Nc2cccc(C)n2)C1c1ccccc1Cl` (stereo unspecified) had a half-life in data set [7] of 4.4 h. The bioavailability in data set [2] was found to be 9%. Further, the ED50 in data set [3] (Mus sp., po, read-out: ED50) was determined as 4.5 mg/kg.

The molecule `CCO/C(O)=C1\C(COCCn2c(C)nc3cnccc32)=NC(C)=C(C(=O)Nc2ccccn2)C1c1ccccc1Cl` (stereo unspecified) showed a half-life in data set [8] of 0.75 h. In data set [2], the bioavailability came out at 4%. For the same molecule, the median effective dose (ED50) in data set [3] (Mus sp., po, read-out: ED50) was 2 mg/kg.

For `CCO/C(O)=C1\C(COCCn2c(C)nc(C)c2C)=NC(C)=C(C(=O)NC(C)(C)C)C1c1ccccc1Cl` (stereo unspecified), the median effective dose (ED50) in data set [3] (Mus sp., po, read-out: ED50) is 10.1 mg/kg.

What is called half-life is the time needed for the level to fall by half in the phase considered. Lower therefore signals fast loss. What is called bioavailability is the share of a dose that reaches the circulation, judged against a reference dose that is usually intravenous. Low readings indicate poor availability, high ones good availability. For orientation: ED50 means the dose that gives a 50% effect, or the effect in half of the subjects. What is called IC50 is the concentration that inhibits the measured activity by half.
